Results published in patent publication US11427783B2, “Perfuming compositions” (Firmenich SA, priority 2016, dated 2022).
Where a name gives a salt, the structure may show the parent alone. Read-outs that look alike come from different tables or passages of the source.

What was measured:
[1] = Volatility of perfuming compounds in air; type: physicochemical
[2] = Odor threshold of perfuming compounds in air
[3] = physchem
[4] = Log P (n-octanol/water) of perfuming compounds
[5] = n-octanol/water, perfuming compounds having a fruity note (Table 6)
[6] = Table 5, perfuming compounds having a green note
[7] = Table 10, perfuming compounds having a woody note
[8] = Table 9, perfuming compounds having a gourmand note
[9] = Table 8, perfuming compounds having a sweet note

Row | Volatility ([1]; Table 4, watery note) [μg/l air] | logP ([3]; n-octanol/water) | SMILES | Odor Threshold ([2]; Table 4, watery note) [μg/l air] | Odor Threshold ([2]; Table 7, citrus note) [μg/l air] | other results
1 | 26.54 | 5.14 | CC(C)=CCCC1=CCC(C)(C=O)CC1 (racemic) | 2.72E−02 |  | 
2 | 4.86 | 3.12 | Cc1ccc2c(c1)CC(C)(CO)C2 (racemic) | 1.28E−04 |  | 
3 |  | 3.15 | CC(C)=CCCC(C)C=O (racemic) | 2.11E−04 |  | Log P (n-octanol/water) [4, 5]: 3.15
4 |  | 3.12 | C=CC(C)CC(=O)CC(C)C (racemic) |  | 2.78E−01 | Log P (n-octanol/water) ([4]; Table 7, citrus note): 3.12
5 | 18.23 | 5.2 | CC(C)=CCCC(C)CCCC(C)C=O (racemic) | 1.59E−02 |  | 
6 |  | 4.24 | CC(C)CCCC(C)CCO (racemic) |  | 4.59E−02 | Volatility ([1]; Table 7, citrus note): 76.57 μg/l air
7 |  | 4.33 | CC(C)=CCCC(C)CCOCC=O (racemic) |  | 8.95E−04 | Volatility ([1]; Table 7, citrus note): 4.70 μg/l air
8 |  |  | C=CC(C)(CCC=C(C)C)OC(C)=O (racemic) [(+−)-1,5-DIMETHYL-1-VINYL-4-HEXENYL ACETATE] |  | 7.40E−02 | Log P (n-octanol/water) ([4]; Table 7, citrus note): 4.04; Log P (n-octanol/water) [4, 5]: 4.04; logP [3]: 4.04
9 |  | 2.22 | CC(=O)OC(C)c1ccccc1 (racemic) [(+−)-1-PHENYLETHYL ACETATE] |  | 4.43E−02 | Log P (n-octanol/water) ([4]; Table 7, citrus note): 2.22
10 | 12.86 | 3.9 | CC(C=O)Cc1ccc(C(C)(C)C)cc1 (racemic) [(+−)-2-methyl-3-[4-(2-methyl-2-propanyl)phenyl]propanal] | 2.39E−04 |  | 
11 | 75.55 | 5.01 | CCCCCCCCCC(C)C=O (racemic) [(+−)-2-methylundecanal] | 7.24E−05 |  | 
12 |  | 3.67 | CCCCCC(C#N)CCC (racemic) [(+−)-2-propylheptanenitrile] |  | 7.83E−02 | Log P (n-octanol/water) ([4]; Table 7, citrus note): 3.67
13 |  |  | C=CC(C)(O)CCC=C(C)C (racemic) [(+−)-3,7-dimethyl-1,6-octadien-3-ol] |  | 8.89E−05 | 
14 | 14.74 |  | CC(C)c1cccc(C(C)CC=O)c1 (racemic) [(+−)-3-(3-ISOPROPYL-1-PHENYL)BUTANAL] | 7.71E−04 |  | Volatility [1, 6]: 14.74 μg/l air
15 | 24.85 | 3.59 | CC(C=O)Cc1ccc(C(C)C)cc1 (racemic) [(+−)-3-(4-isopropylphenyl)-2-methylpropanal] | 3.00E−03 |  | 
16 | 18.99 | 2.8 | COc1ccc(CC(C)C=O)cc1 (racemic) [(+−)-3-(4-methoxyphenyl)-2-methylpropanal] | 9.79E−03 |  | Log P (n-octanol/water) [4, 6]: 2.80; Volatility [1, 6]: 18.99 μg/l air
17 | 12.81 | 2 | CC(CC=O)CCCC(C)(C)O (racemic) [(+−)-7-hydroxy-3,7-dimethyloctanal] | 6.98E−03 |  | 
18 |  | 3.57 | COCC(C)Cc1ccccc1 (racemic) [(+−)-(3-methoxy-2-methylpropyl)benzene] |  | 1.51E−02 | Log P (n-octanol/water) ([4]; Table 7, citrus note): 3.57; Log P (n-octanol/water) [4, 5]: 3.57
19 |  | 2.85 | CCC(C)C(=O)OC(C)C (racemic) [(+−)-ISOPROPYL 2-METHYLBUTANOATE] |  | 8.42E−03 | Log P (n-octanol/water) ([4]; Table 7, citrus note): 2.85
20 | 79.79 | 2.22 | CC(C)CC1CC(C)(O)CCO1 (racemic) [(+−)-TETRAHYDRO-2-ISOBUTYL-4-METHYL-4(2H)-PYRANOL] | 1.35E−02 |  | 
21 |  | 3.37 | CCCCC(CC)C(=O)OC (racemic) [(+−)-methyl 2-ethylhexanoate] |  |  | Log P (n-octanol/water) [4, 7]: 3.37; Volatility (μg/l air) [1, 7]: 6677.64 μg/l air
22 |  | 2.92 | CCCCC[C@H]1C(=O)CC[C@@H]1CC(=O)OC (racemic) [methyl 2-((1RS,2RS)-3-oxo-2-pentylcyclopentyl)acetate] |  | 5.77E−04 | Volatility ([1]; Table 7, citrus note): 2.12 μg/l air
23 |  |  | C=C(C)C1CC=C(C)CC1 (single isomer, unassigned; (+)) [(+)-LIMONENE] |  | 1.29E−01 | 
24 |  | 4.01 | CC(OC=O)C1CCCC(C)(C)C1 (stereo not drawn) [1-(3,3-DIMETHYL-1-CYCLOHEXYL)ETHYL FORMATE] |  | 2.05E−01 | 

Row | Volatility ([1]; Table 4, watery note) [μg/l air] | logP ([3]; n-octanol/water) | SMILES | Odor Threshold ([2]; Table 4, watery note) [μg/l air] | Odor Threshold ([2]; Table 7, citrus note) [μg/l air] | other results
25 |  |  | CC1=CCC(C(C)C)=CC1 [1-methyl-4-(2-propanyl)-1,4-cyclohexadiene] |  | 1.16E−01 | Volatility ([1]; Table 7, citrus note): 4298.67 μg/l air; logP [3]: 5.87
26 |  | 3.82 | CCOc1ccc2ccccc2c1 [2-ETHOXYNAPHTHALENE] |  | 3.57E−03 | Volatility ([1]; Table 7, citrus note): 22.67 μg/l air
27 |  | 1.9 | O=COCCc1ccccc1 [2-PHENYLETHYL FORMATE] |  | 8.34E−04 | Log P (n-octanol/water) ([4]; Table 7, citrus note): 1.90; Log P (n-octanol/water) [4, 5]: 1.90
28 |  | 2.15 | C/C=C/c1ccc(O)c(OC)c1 [2-methoxy-4-[(1E)-1-propen-1-yl]phenol] |  |  | Log P (n-octanol/water) [4, 8]: 2.15; Volatility (μg/l air) [1, 9]: 11.28 μg/l air; Volatility (μg/l air) [1, 8]: 11.28 μg/l air
29 |  | 0.72 | COc1cc(C=O)ccc1O [4-hydroxy-3-methoxybenzaldehyde] |  |  | Log P (n-octanol/water) [4, 8]: 0.72; Volatility (μg/l air) [1, 9]: 4.24 μg/l air; Volatility (μg/l air) [1, 8]: 4.24 μg/l air
30 |  | 3 | CCCCCCC1CCCC(=O)O1 (stereo not drawn) [6-hexyltetrahydro-2H-pyran-2-one] |  |  | Log P (n-octanol/water) [4, 9]: 3.00; Log P (n-octanol/water) [4, 8]: 3.00; Volatility (μg/l air) ([1]; Table 6, perfuming compounds having a fruity note): 4.64 μg/l air; Volatility (μg/l air) [1, 9]: 4.64 μg/l air; Volatility (μg/l air) [1, 8]: 4.64 μg/l air
31 | 4.37 | 2.97 | CC(C)(C)c1ccc2c(c1)OCC(=O)CO2 [7-(2-methyl-2-propanyl)-2H-1,5-benzodioxepin-3(4H)-one] | 1.53E−04 |  | Log P (n-octanol/water) [4, 6]: 2.97; Volatility [1, 6]: 4.37 μg/l air
32 | 4.85 | 2.79 | CCCc1ccc2c(c1)OCC(=O)CO2 [7-PROPYL-2H,4H-1,5-BENZODIOXEPIN-3-ONE] | 6.43E−05 |  | Log P (n-octanol/water) [4, 6]: 2.79; Volatility [1, 6]: 4.85 μg/l air
33 | 131.02 | 3.81 | CC1=CC2CC(C=O)C1CC2C(C)C (stereo not drawn) [8-ISOPROPYL-6-METHYL-BICYCLO[2.2.2]OCT-5-ENE-2-CARBALDEHYDE] | 7.11E−05 |  | Log P (n-octanol/water) [4, 6]: 3.81; Volatility [1, 6]: 131.02 μg/l air
34 | 136.73 | 3.93 | C=CCCCCCCCCC=O [10-undecenal] | 3.15E−03 |  | 
35 |  | 1.62 | CCC/C=C/C=O [(2E)-2-HEXENAL] |  | 2.53E−03 | Log P (n-octanol/water) ([4]; Table 7, citrus note): 1.62; Log P (n-octanol/water) [4, 5]: 1.62
36 | 98.76 | 2.68 | CC/C=C\CC/C=C/CO [(2E,6Z)-2,6-NONADIEN-1-OL] | 3.22E−06 |  | Log P (n-octanol/water) [4, 6]: 2.68; Volatility [1, 6]: 98.76 μg/l air
37 | 632.43 |  | CC/C=C\CC/C=C/C=O [(2E,6Z)-2,6-NONADIENAL″, (2E,6Z)-2,6-NONADIENAL] | 1.46E−04 |  | Volatility [1, 6]: 632.43 μg/l air
38 |  |  | CCCCC/C=C/CCC=O [(E)-4-DECENAL] |  | 7.59E−05 | Volatility ([1]; Table 7, citrus note): 691.34 μg/l air
39 |  | 3.17 | CCCOC(=O)[C@H](C)OC(C)(C)CC [(−)-PROPYL (S)-2-(1,1-DIMETHYLPROPOXY)PROPANOATE] |  | 4.98E−01 | 
40 | 466.56 | 3.99 | CCCCCCCCCC=O [DECANAL″, DECANAL] | 1.92E−03 |  | 
41 |  |  | C=CCSSCC=C [DIALLYL DISULFIDE] |  |  | Log P (n-octanol/water) [4, 8]: 3.30; Volatility (μg/l air) [1, 9]: 5487.52 μg/l air; Volatility (μg/l air) [1, 8]: 5487.52 μg/l air; logP [3]: 3.3
42 | 144.79 | 4.94 | CCCCCCCCCCCC=O [DODECANAL] | 9.90E−04 |  | 
43 | 1.52 | 2.3 | COC(=O)c1c(C)cc(O)c(C)c1O [METHYL 2,4-DIHYDROXY-3,6-DIMETHYLBENZOATE] | 4.89E−06 |  | 
44 | 472.01 | 2.9 | CCCCCC#CC(=O)OC [METHYL 2-OCTYNOATE″, METHYL 2-OCTYNOATE] | 8.31E−04 |  | Volatility [1, 6]: 472.01 μg/l air
45 |  | 3.69 | CCCCCCCOC(C)=O [heptyl acetate] |  | 1.32E−01 | Log P (n-octanol/water) ([4]; Table 7, citrus note): 3.69
46 |  | 4.29 | CCCCCCCCOC(C)=O [octyl acetate] |  | 1.76E−01 | Log P (n-octanol/water) ([4]; Table 7, citrus note): 4.29
47 | 178.29 | 4.56 | CCCCCCCCCCC=O [undecanal] | 1.65E−03 |  | 

Row | SMILES | Volatility ([1]; Table 4, watery note) [μg/l air] | logP ([3]; n-octanol/water) | Odor Threshold ([2]; Table 4, watery note) [μg/l air] | Odor Threshold ([2]; Table 7, citrus note) [μg/l air] | other results
48 | CC(C=O)Cc1ccc2c(c1)OCO2 (racemic) [(+−)-3-(1,3-BENZODIOXOL-5-YL)-2-METHYLPROPANAL] | 3.57 |  | 2.23E−04 |  | logP [3]: 1.28
49 | CCCCOC(C)=O [BUTYL ACETATE] |  | 2.11 |  |  | Log P (n-octanol/water) [4, 9]: 2.11; Log P (n-octanol/water) [4, 8]: 2.11; Volatility (μg/l air) [1]: 117207.52 μg/l air
50 | CCCCCCCCCCCC#N [DODECANENITRILE] | 56.74 | 1.61 | 3.20E−06 |  | 
